Reference: PubChem BioAssay (NCI)
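Grown in 96-well plates, cells were treated for 48 hours with each compound at five concentrations. Insufficient inhibition: endpoint recorded as highest concentration tested. At the TGI there is no net growth.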

Key:
Experiment in all cases: NCI tumour cell line growth inhibition, 48 h
[1] = tested on: KM20L2 colon
[2] = tested on: SF-268 CNS
[3] = tested on: UACC-257 melanoma
[4] = tested on: SK-MEL-5 melanoma
[5] = tested on: CAKI-1 renal
[6] = tested on: K-562 leukemia
[7] = tested on: NCI-H23 lung
[8] = tested on: OVCAR-8 ovarian
[9] = tested on: OVCAR-3 ovarian
[10] = tested on: XF 498 CNS
[11] = tested on: HL-60(TB) leukemia
[12] = tested on: SK-MEL-2 melanoma
[13] = tested on: RPMI-8226 leukemia
[14] = tested on: 786-0 renal
[15] = tested on: HT29 colon
[16] = tested on: DLD-1 colon
[17] = tested on: SF-295 CNS
[18] = tested on: SNB-19 CNS
[19] = tested on: CCRF-CEM leukemia
[20] = tested on: KM12 colon
[21] = tested on: HOP-18 NSCLC
[22] = tested on: HCT-15 colon
[23] = tested on: SNB-75 CNS
[24] = tested on: EKVX NSCLC
[25] = tested on: OVCAR-4 ovarian
[26] = tested on: M19-MEL melanoma
[27] = tested on: SF-539 CNS
[28] = tested on: A549 NSCLC
[29] = tested on: HCT-116 colon
[30] = tested on: UO-31 renal
[31] = tested on: SW-620 colon
[32] = tested on: SN12C renal
[33] = tested on: SNB-78 CNS
[34] = tested on: SR leukemia
[35] = tested on: RXF 393 renal
[36] = tested on: LOX IMVI melanoma
[37] = tested on: UACC-62 melanoma
[38] = tested on: M14 melanoma
[39] = tested on: TK-10 renal
[40] = tested on: A498 renal
[41] = tested on: LXFL 529 NSCLC
[42] = tested on: HOP-62 NSCLC
[43] = tested on: DMS 273 small cell lung
[44] = tested on: NCI-H460 lung
[45] = tested on: OVCAR-5 ovarian
[46] = tested on: HCC-2998 colon
[47] = tested on: SK-MEL-28 melanoma
[48] = tested on: ACHN renal
[49] = tested on: MOLT-4 leukemia
[50] = tested on: NCI-H226 lung
[51] = tested on: IGROV1 ovarian
[52] = tested on: DMS 114 small cell lung
[53] = tested on: HOP-92 NSCLC
[54] = tested on: MALME-3M melanoma
[55] = tested on: SN12K1 renal
[56] = tested on: NCI-H522 lung
[57] = tested on: P388 leukemia
[58] = tested on: COLO 205 colon
[59] = tested on: SK-OV-3 ovarian
[60] = tested on: P388/ADR leukemia
[61] = tested on: NCI/ADR-RES ovarian
[62] = tested on: MCF7 breast
[63] = tested on: U251 CNS

Question: Which results are given for `C/C(CCn1[nH]c(=O)ccc1=O)=N\OCCCc1ccccc1`?
Answer: TGI [1]: > 100 µM; TGI [2]: > 100 µM; TGI [3]: > 100 µM; TGI [4]: > 100 µM; TGI [5]: > 100 µM; TGI [6]: > 100 µM; TGI [7]: > 100 µM; TGI [8]: > 100 µM; TGI [9]: > 100 µM; TGI [10]: > 100 µM; TGI [11]: > 100 µM; TGI [12]: > 100 µM; TGI [13]: > 100 µM; TGI [14]: > 100 µM; TGI [15]: > 100 µM; TGI [16]: > 100 µM; TGI [17]: > 100 µM; TGI [18]: > 100 µM; TGI [19]: > 100 µM; TGI [20]: > 100 µM; TGI [21]: > 100 µM; TGI [22]: > 100 µM; TGI [23]: > 100 µM; TGI [24]: > 100 µM; TGI [25]: > 100 µM; TGI [26]: > 100 µM; TGI [27]: > 100 µM; TGI [28]: > 100 µM; TGI [29]: > 100 µM; TGI [30]: > 100 µM; TGI [31]: > 100 µM; TGI [32]: > 100 µM; TGI [33]: > 100 µM; TGI [34]: > 100 µM; TGI [35]: > 100 µM; TGI [36]: > 100 µM; TGI [37]: > 100 µM; TGI [38]: > 100 µM; TGI [39]: > 100 µM; TGI [40]: > 100 µM; TGI [41]: > 100 µM; TGI [42]: > 100 µM; TGI [43]: > 100 µM; TGI [44]: > 100 µM; TGI [45]: > 100 µM; TGI [46]: > 100 µM; TGI [47]: > 100 µM; TGI [48]: > 100 µM; TGI [49]: > 100 µM; TGI [50]: > 100 µM; TGI [51]: > 100 µM; TGI [52]: > 100 µM; TGI [53]: > 100 µM; TGI [54]: > 100 µM

Question: For `CCCCC#CS(=O)(=O)C(F)(F)F`, which TGI [1] is on record?
Answer: Its TGI is greater than 100 µM.

Question: What about the TGI [2] of the same compound?
Answer: Its TGI is greater than 100 µM.

Question: And the TGI [3]?
Answer: The TGI was greater than 100 µM.

Question: And the TGI [4]?
Answer: Its TGI is greater than 100 µM.

Question: What about the TGI [5] of the same compound?
Answer: The TGI was greater than 100 µM.

Question: What about the TGI [6] of the same compound?
Answer: The TGI was greater than 100 µM.

Question: What about the TGI [7] of the same compound?
Answer: Its TGI is greater than 100 µM.

Question: What about the TGI [55] of the same compound?
Answer: The TGI was greater than 100 µM.

Question: What about the TGI [8] of the same compound?
Answer: The TGI was greater than 100 µM.

Question: And the TGI [9]?
Answer: The TGI was greater than 100 µM.

Question: What about the TGI [10] of the same compound?
Answer: The TGI was greater than 94.7 µM.

Question: What about the TGI [11] of the same compound?
Answer: Its TGI is 62.9 µM.

Question: What about the TGI [12] of the same compound?
Answer: The TGI was greater than 100 µM.

Question: And the TGI [56]?
Answer: The TGI was greater than 100 µM.

Question: And the TGI [13]?
Answer: The TGI was greater than 100 µM.

Question: And the TGI [15]?
Answer: The TGI was greater than 100 µM.

Question: What about the TGI [16] of the same compound?
Answer: The TGI was greater than 100 µM.

Question: And the TGI [57]?
Answer: The TGI was 63.2 µM.

Question: What about the TGI [17] of the same compound?
Answer: The TGI was greater than 100 µM.

Question: And the TGI [18]?
Answer: Its TGI is greater than 100 µM.

Question: What about the TGI [58] of the same compound?
Answer: The TGI was greater than 100 µM.

Question: And the TGI [19]?
Answer: The TGI was greater than 100 µM.

Question: What about the TGI [20] of the same compound?
Answer: The TGI was greater than 100 µM.

Question: And the TGI [21]?
Answer: The TGI was greater than 100 µM.

Question: And the TGI [22]?
Answer: Its TGI is greater than 100 µM.

Question: And the TGI [23]?
Answer: The TGI was 98.3 µM.

Question: What about the TGI [24] of the same compound?
Answer: The TGI was greater than 100 µM.

Question: What about the TGI [59] of the same compound?
Answer: The TGI was greater than 100 µM.

Question: What about the TGI [25] of the same compound?
Answer: The TGI was 98.9 µM.

Question: And the TGI [27]?
Answer: The TGI was greater than 100 µM.

Question: What about the TGI [28] of the same compound?
Answer: Its TGI is greater than 100 µM.

Question: What about the TGI [29] of the same compound?
Answer: The TGI was greater than 100 µM.

Question: And the TGI [30]?
Answer: Its TGI is greater than 100 µM.

Question: What about the TGI [60] of the same compound?
Answer: The TGI was greater than 100 µM.

Question: And the TGI [31]?
Answer: The TGI was greater than 100 µM.

Question: And the TGI [32]?
Answer: Its TGI is greater than 100 µM.

Question: What about the TGI [61] of the same compound?
Answer: Its TGI is greater than 100 µM.

Question: And the TGI [33]?
Answer: Its TGI is greater than 100 µM.

Question: What about the TGI [62] of the same compound?
Answer: Its TGI is greater than 100 µM.

Question: And the TGI [35]?
Answer: The TGI was 78.1 µM.

Question: And the TGI [36]?
Answer: Its TGI is greater than 100 µM.

Question: And the TGI [37]?
Answer: Its TGI is 99.6 µM.

Question: What about the TGI [40] of the same compound?
Answer: Its TGI is greater than 100 µM.

Question: And the TGI [42]?
Answer: Its TGI is greater than 100 µM.

Question: What about the TGI [43] of the same compound?
Answer: The TGI was greater than 100 µM.

Question: And the TGI [44]?
Answer: The TGI was greater than 100 µM.

Question: What about the TGI [45] of the same compound?
Answer: Its TGI is greater than 100 µM.

Question: What about the TGI [46] of the same compound?
Answer: Its TGI is greater than 31.6 µM.

Question: And the TGI [47]?
Answer: Its TGI is greater than 100 µM.

Question: What about the TGI [49] of the same compound?
Answer: The TGI was greater than 100 µM.

Question: What about the TGI [50] of the same compound?
Answer: The TGI was greater than 100 µM.

Question: What about the TGI [51] of the same compound?
Answer: Its TGI is greater than 100 µM.

Question: What about the TGI [52] of the same compound?
Answer: The TGI was greater than 100 µM.

Question: What about the TGI [63] of the same compound?
Answer: The TGI was greater than 100 µM.

Question: And the TGI [53]?
Answer: The TGI was greater than 84.4 µM.

Question: And the TGI [54]?
Answer: The TGI was greater than 100 µM.
